Assay results as given in US11786500B2, “Glutaminase inhibitor therapy” (Board of Regents, The University of Texas System, priority 2017, dated 2023).
Entries after “also recorded” stand apart in the source; their conditions may differ. Where two headings read alike, the source gives them in different places.

Experiments:
[1] = system: OVCAR8; assay: Analysis of glutathione levels (GSH-Glo); assay type: cell-based; conditions: OVCAR8, 1 μM, 24 hours
Description: (§1) Analysis of Glutathione Levels: Cells were plated in 96-well Corning Costar 3603 at 10,000 cells/well on Day 0. Cells were allowed to settle and attach overnight. […] Cells were incubated with compound or relevant controls for 24 hours. On Day 2, 24 hours after treatment, cells were analyzed by GSH-Glo (PromegaV6912) per manufacturer's instructions. […] Duplicate wells were plated and then stained with crystal violet in order to correct for differences in cell growth as described below.
(§2) GLS-dependence is driven by addiction to glutamine-dependent, glutathione-mediated redox maintenance in OVCA responder cell lines. […] Consistent with this hypothesis, GLS-1 inhibition induced a significant decrease in intracellular glutathione and a concurrent increase in reactive oxygen species (FIGS. 7 and 8) in responder lines.

[2] = system: OVCAR4; assay: Analysis of glutathione levels (GSH-Glo); assay type: cell-based; conditions: OVCAR4 (non-responder), 24 hours
Description: as §1, §2

[3] = system: OVCAR420; assay: Analysis of glutathione levels (GSH-Glo); assay type: cell-based; conditions: OVCAR420, 1 μM, 24 hours
Description: as §1, §2

[4] = system: OVCAR429; assay: Analysis of glutathione levels (GSH-Glo); assay type: cell-based; conditions: OVCAR429, 1 μM, 24 hours
Description: as §1, §2

[5] = system: OVCAR8 and OVCAR420 cells; assay: DNA damage staining and quantification (γH2AX foci); assay type: cell-based; conditions: 48 hours
Description: Cells were then fixed using 4% Paraformaldehyde and permeabilized using 0.5% TritonX100. Fixed cells were stained with Anti-γH2AX, rabbit (Bethyl IHC-00059) (1:500) for 2 h at 37 C. The secondary antibody used was Alexa Fluor 546 donkey anti-rabbit (Invitrogen A10040) (1:150) simultaneously with Hoechst 33342, Trihydrochloride, Trihydrate (Invitrogen, H3570) (1:1000) for 1 h at 37 C. DNA damage was measured as a γH2AX signal per nucleus using PerkinElmer High Content Screening System Operetta with the Harmony software. First, nuclei were selected using Hoechst staining. Then, single cells were gated based on nucleus size and shape. Apoptotic and mitotic cells were excluded based on maximum Hoechst intensity in the nucleus. DNA damage foci were identified within the gated nuclei using the “find spots in Alexa 546 channel” analysis block. Finally, the total intensity of Alexa 546 within all “spots” in the nucleus, or the total number of spots in the nucleus, averaged per cell, was calculated.
GLS-1 inhibition induces oxidative stress that leads to accumulation of DNA damage. […] Moreover, we observed an accumulation of γH2AX foci, a marker of DNA damage, and the likely cause of anti-proliferative effects observed upon GLS-1 inhibition (FIG. 11).

[6] = system: OVCAR8; assay: Cell viability / proliferation assay (Cell Titer Glo, 72 h); assay type: cell-based
Description: (§4) Cells were allowed to settle and attach overnight. Cells plated in triplicate for each concentration and control examined. […] Cells were incubated with compound or relevant controls for 72 hours. On Day 4, 72 hours after treatment, cells were analyzed by Cell Titer Glo (PromegaG7573) per manufacturer's instructions. Plates were read in luminescence mode on a PheraStarFS plate reader. Data was collected, replicates were averaged, standard deviations calculated and analyzed through nonlinear regression analysis with four (4) parameters to generate IC50s for each cell line tested.

[7] = system: OVCAR429; assay: as above; assay type: cell-based
Description: as §4

[8] = system: OVCAR8, OVCAR429, OVCAR4, and IGROV1 cells; assay: Metabolomics (LC-MS/MS metabolic profiling); assay type: cell-based; conditions: 1 μM, 24 hours; muted or absent in non-responder lines
Description: OVCAR8 cells were plated at 3×10^6 cells per 10 cm dish and OVCAR429, IGROV1, and OVCAR4 were plated at 3.5×10^6 cells per 10 cm dish 24 hours (24 h) prior to treatment. […] On day 1 (d.1), 2 hours (2 h) prior to harvest, samples were washed with 5 mL media containing 10% dialyzed FBS. 10 mL of media was added to plates and plates were returned to the incubator for 2 h. Media was then aspirated from plates and 4 mL of 80% chilled MeOH (−80° C.) was immediately added. Plates were incubated at −80° C. for 15 minutes. Cells were then scraped with cell scraper to release cells while keeping plates on dry ice. The MeOH/cell lysate mixture was collected and transferred to conical tubes on dry ice. Tubes were centrifuged at full speed in 4° C. chilled centrifuge for 5 minutes. Supernatant was transferred to another set of conical tubes on dry ice by decanting. The remaining pellet was re-suspended in 500 μL of cold MeOH and the mixture was moved to a microcentrifuge tube. Microfuge tubes were spun at full speed for 5 minutes in 4° C. chilled microcentrifuge. […]
Differentially abundance analysis of metabolite levels was carried out using a moderated t-test function from Bioconductor's limma package (Smyth 2005). […] The normalization factor was calculated by first defining a vector, Nmed, to be the median peak area for each metabolite across a set of samples. […]

[9] = system: OVCAR4; assay: Cell viability / proliferation assay (Cell Titer Glo, 72 h); assay type: cell-based
From the text: (§3) Cells were allowed to settle and attach overnight.

[10] = system: IGROV1; assay: as above; assay type: cell-based
From the text: as §3

[11] = system: A2780; assay: as above; assay type: cell-based
From the text: as §3

[12] = system: OVCAR420; assay: cells
Description: Cell culture media: All cells were grown in RPMI-1640 (Gibco11875-119) with 2 mM Glutamine+10% FBS (Gibco16000-044) unless otherwise noted.
Cells were plated in black, 96-well Corning Costar 3603 at densities to allow for Log phase growth throughout the experiment (see table below) on Day 0. Cells were allowed to settle and attach overnight. Cells plated in triplicate for each concentration and control examined. […] Cells were incubated with compound or relevant controls for 72 hours. On Day 4, 72 hours after treatment, cells were analyzed by Cell Titer Glo (PromegaG7573) per manufacturer's instructions. Plates were read in luminescence mode on a PheraStarFS plate reader. Data was collected, replicates were averaged, standard deviations calculated and analyzed through nonlinear regression analysis with four (4) parameters to generate IC50s for each cell line tested.

[13] = system: responder cells OVCAR420, OVCAR429; assay: Analysis of reactive oxygen species production (CM-H2DCFDA, flow cytometry); assay type: cell-based; conditions: 1 μM, 48 hours
Description: One day prior to the experiment, OVCAR-8 and OVCAR420 cells were seeded in 6 well dishes (250,000 cells per well). […] The following day, an allocated well was treated with hydrogen peroxide for 20-30 minutes as a positive control for ROS generation. All wells were then stained with CM-H2DCFDA (5 μM, Life Technologies) for 30 minutes at 37° C., washed with 1×PBS, harvested by trypsinization, and re-suspended in 400 μl phenol-free RPMI medium. Cells were strained through a […] cell strainer and analyzed using a flow cytometer (LSR Fortessa).
For each condition, calculation of mean fluorescence intensity allows for the comparison of ROS accumulation between control and treated samples. Shown are responder cells: (a) OVCAR420; (b) OVCAR429, with GFP-A on the x-axis, and count on the y-axis.

[14] = system: ASNSlow HGSOC patient-derived xenograft; assay: ASNSlow HGSOC patient-derived xenograft (PDX) model; assay type: in vivo, NOD/SCID mice; conditions: orally 100 mg/kg, BID for 39 days; p<0.0001 vs vehicle control
Description: The the anti-tumor effects of Compound 2 were tested in vivo in an ASNS^low HGSOC patient-derived xenograft (PDX) model using human tumor tissue that was identified through immunohistochemistry to be ASNS^low and characterized through histological phenotyping to be of a high-grade serous subtype, implanted in to NOD/SCID mice.
Compound 2 inhibits tumor growth of an ASNS^low PDX xenograft as a single agent in NOD/SCID mice (FIG. 23(b)). In this experiment, Compound 2, administered orally at a dose of 100 mg/kg, BID for 39 days inhibited tumor growth (TGI=50%, p<0.0001 for tumor volumes after treatment with Compound 2 vs vehicle control).

[15] = system: OVCAR-8 subcutaneous xenografts; assay: OVCAR-8 subcutaneous xenograft; assay type: in vivo, athymic mice; conditions: 100 mpk, twice a day, oral gavage, three weeks
Description: OVCAR-8 cells were implanted subcutaneously into athymic mice and allowed to grow into an established tumor. Animals were then treated with compound 2, for three weeks (100 mpk, twice a day) by oral gavage.

[16] = system: OVCAR-8 tumors; assay: Glutamate:glutamine ratio in OVCAR-8 tumor lysates (mass spec); assay type: in vivo; conditions: dosed for 1, 7 or 21 days
Description: OVCAR-8 tumors were dosed for 1, 7 or 21 days and then harvested from animals. Tumor lysates were analyzed by mass spec for the presence of glutamine and glutamate.

[17] = system: SK-OV-3 cells; assay: Orthotopic model of ovarian cancer (SK-OV-3, intraperitoneal); assay type: in vivo, athymic nude mice; conditions: day 21; compared to vehicle or paclitaxel alone
Description: SK-OV-3 cells were injected into the intraperitoneal cavity of athymic nude mice and allow to grow for 7 days. At day 7, animals were treated with the in vivo tool compound to inhibit GLS-1 and animals were monitored for clinical disease signs.

IC50 ([6]; Homo sapiens, OVCAR-8, OVCAR8, 72 h, read-out: IC50, viability (relative to DMSO)) [nM]	IC50 [7] [nM]	IC50 ([7]; OVCAR429, 72 h, read-out: IC50, viability (relative to DMSO)) [nM]	IC50 [12] [nM]	SMILES	GSH levels [1]	GSH levels [2]	GSH levels [3]	GSH levels [4]	DNA damage (γH2AX foci per nuclei) [5]	response, 72 hour viability ([6]; OVCAR8)	response, 72 hour viability ([7]; OVCAR429)	changes in metabolite levels [8]	response, viability [9]	response, 72 hour viability [10]	response, viability [11]	accumulation of intracellular ROS [13]	TGI (tumor growth inhibition) [14] [%]	tumor growth (tumor volume) [15]	glutamate:glutamine ratio in tumors [16]	combined nodule weight per animal [17]
13	76	59	59	O=C(Cc1cccc(OC(F)(F)F)c1)Nc1ccc(CCCCc2nnc(NC(=O)Cc3ccccn3)s2)nn1 [Compound 1, 2-(pyridin-2-yl)-N-{5-[4-(6-{2-[3-(trifluoromethoxy)phenyl]acetamido}pyridazin-3-yl)butyl]-1,3,4-thiadiazol-2-yl}acetamide]	significantly decreased	does not show a significant decrease	significantly decreased	significantly decreased	induces DNA damage	nM sensitivity	nM sensitivity	decrease in TCA cycle activity	resistant; also recorded: no response	resistant	no response	induces an accumulation of ROS	–	–	–	–
–	–	–	–	CNC(=O)c1cn(C[C@H](F)CCc2ccc(NC(=O)Cc3cc(OC4CC(F)(F)C4)cc(C)n3)nn2)nn1 [Compound 2, (R)-1-(4-(6-(2-(4-(3,3-difluorocyclobutoxy)-6-methylpyridin-2-yl)acetamido)pyridazin-3-yl)-2-fluorobutyl)-N-methyl-1H-1,2,3-triazole-4-carboxamide]	–	–	–	–	–	–	–	–	–	–	–	–	50	significant tumor growth inhibition	altered glutamine metabolism	robust reduction
